From article PMC12091851, “Replacing a Cereblon Ligand by a DDB1 and CUL4 Associated Factor 11 (DCAF11) Recruiter Converts a Selective Histone Deacetylase 6 PROTAC into a Pan‐Degrader” (Chemmedchem, 2025)

Target: T1, HDAC6 (Homo sapiens, UniProt Q9UBN7)
T1 sequence (Q9UBN7 1-1215): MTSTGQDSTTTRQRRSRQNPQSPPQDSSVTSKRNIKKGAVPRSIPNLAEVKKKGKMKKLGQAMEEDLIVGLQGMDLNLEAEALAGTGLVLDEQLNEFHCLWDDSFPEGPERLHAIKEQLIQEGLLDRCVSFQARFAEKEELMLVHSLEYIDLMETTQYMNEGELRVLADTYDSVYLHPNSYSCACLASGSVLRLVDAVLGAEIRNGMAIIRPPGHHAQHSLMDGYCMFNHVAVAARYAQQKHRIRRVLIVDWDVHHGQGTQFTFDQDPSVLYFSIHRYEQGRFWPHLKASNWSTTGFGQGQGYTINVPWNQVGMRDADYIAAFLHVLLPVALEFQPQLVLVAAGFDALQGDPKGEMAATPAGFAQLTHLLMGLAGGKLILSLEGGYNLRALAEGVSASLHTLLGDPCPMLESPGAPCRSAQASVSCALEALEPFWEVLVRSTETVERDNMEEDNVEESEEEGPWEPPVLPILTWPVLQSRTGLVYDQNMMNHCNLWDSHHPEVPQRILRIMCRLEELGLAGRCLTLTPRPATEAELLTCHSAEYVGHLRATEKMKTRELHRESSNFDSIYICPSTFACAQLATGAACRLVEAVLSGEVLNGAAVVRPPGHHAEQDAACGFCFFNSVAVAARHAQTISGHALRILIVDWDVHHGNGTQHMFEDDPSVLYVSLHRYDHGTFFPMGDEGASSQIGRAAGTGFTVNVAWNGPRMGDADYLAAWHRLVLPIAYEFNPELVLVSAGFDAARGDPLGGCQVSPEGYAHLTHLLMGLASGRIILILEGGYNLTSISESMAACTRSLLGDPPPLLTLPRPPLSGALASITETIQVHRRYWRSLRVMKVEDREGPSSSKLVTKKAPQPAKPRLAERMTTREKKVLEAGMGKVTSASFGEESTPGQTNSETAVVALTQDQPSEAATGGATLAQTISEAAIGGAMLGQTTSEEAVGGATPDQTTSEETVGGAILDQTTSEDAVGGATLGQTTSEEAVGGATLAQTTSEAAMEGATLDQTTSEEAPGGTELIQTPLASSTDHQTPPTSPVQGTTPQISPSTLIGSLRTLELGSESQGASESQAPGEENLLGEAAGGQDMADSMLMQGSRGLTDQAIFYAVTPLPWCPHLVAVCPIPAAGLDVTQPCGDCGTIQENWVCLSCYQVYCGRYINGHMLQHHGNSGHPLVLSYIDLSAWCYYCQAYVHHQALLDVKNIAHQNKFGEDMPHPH
Experiment: Simple Western immunoassay, HDAC6 levels in MM.1S cell lysates
Format: cell-based
Set-up: endogenous in cells; host or cells: MM.1S
Conditions: MM.1S cells, 10 μM; for reduction of HDAC6 protein levels: 24 h
Method: Figure 3 Initial degradation screening of HDAC1 and 6 by DCAF11‐recruiting PROTACs by Simple Western™ immunoassay analysis of MM.1S cell lysates. MM.1S cells were treated with the indicated compound (10 μM) or vehicle (DMSO) for 24 h. […] Bottom: Representative images from a total of n=3 biological replicates, labeled with spacer type; w/o: without spacer.
2. Biological Experiments […]
The human multiple myeloma cell line MM.1S (CRL-2974) was obtained from American Type Culture Collection (ATCC, Manassas, VA, USA). The semi-adherent cells were cultivated in RPMI 1640 medium (Catalog#21875-034, Gibco, ThermoFisher Scientific Inc., Waltham, MA, USA) supplemented with 10% FBS (PAN Biotech GmbH; Aidenbach, Germany), 100 IU/mL penicil lin, 0.1 mg/mL streptomycin (PAN Biotech GmbH) and 1 mM sodium pyruvate (ThermoFisher Scientific Inc.). […]
(PAN Biotech GmbH). All cells were cultured at 37 °C in a 5% CO2 atmosphere. Incubation times, as part of assay protocols, were performed under these conditions as well. […]
2.2. Simple Western™ Immunoassay
For the cell lysates, MM.1S (0.5 × 10^6 cells/mL) or U-87MG (0.18 × 10^6 cells/mL) cells were seeded and incubated with the indicated concentration of compound or vehicle (DMSO) for the given time. […]
SDS, 0.5% deoxycholate; Catalog# FNN0011, Thermo Fisher Scientific Inc., Waltham, MA, USA) with addition of Halt Protease Inhibitor Cocktail (100×) (Catalog# 78429, Life Technologies GmbH, Carlsbad, CA, USA) and phenylmethanesulfonyl fluoride (Catalog# 10837091001, Sigma-Aldrich, St.
Louis, MO, USA) according to manufacturer´s instructions. Protein content was determined by Pierce™ BCA Protein Assay Kit (Catalog# 23225, Thermo Fisher Scientific Inc.) according to manufacturer´s guidelines. […]
Fluorescence Separation 8x25 Capillary Cartridges (Catalog# SM-FL004-1, Protein Simple, Bio-Techne, Minneapolis, MN, USA) were used for separation and the Anti-Mouse Detection Module (Catalog# DM-002, Protein Simple) was used for detection with addition of 20x Anti-Rabbit HRP […]
Conjugate (Catalog# 043-426, Protein Simple) according to manufacturer´s instructions. […] Evaluation and quantification was performed with the compass software (6.2.0, Protein Simple). […]
For the cell viability assay the automated pipetting robot system ASSIST PLUS (Model# 4505, Integra Biosciences, Bibertal, Germany) was used. […] The toxicity of compounds was determined after 72 h using the CellTiter-Glo 2.0 Cell Viability Assay (Promega, Madison, WI, USA, #G9242) according to the manufacturer´s protocol. Subsequently, the luminescence was measured using a Tecan Spark (Tecan Group AG, Maennedorf, Swiss) and the half maximal effective concentration (EC50) was determined by plotting dose response curves and nonlinear regression with GraphPad Prism (GraphPad Software, San […]

time dependent degradation of HDAC6 (after 6 h)	SMILES	effect on HDAC6 protein levels (14 h)	reduction of HDAC6 protein levels
–	O=CN(CCCCCCCCCCCC(=O)Nc1ccc(C(=O)NCCCCCCC(=O)NO)cc1)C(C(=O)NCc1ccccc1)c1ccc(Cl)c(Cl)c1 (stereo not shown) [Compound 1j-nc]	not able to affect the protein levels of HDAC1 and 6	–
significant degradation	O=C(CCCCCCNC(=O)c1ccc(NC(=O)CCCCCCCCCCCN(C(=O)CCl)C(C(=O)NCc2ccccc2)c2ccc(Cl)c(Cl)c2)cc1)NO (stereo not shown) [Compound 1j]	–	significant reduction of HDAC6 protein levels
–	O=C(CCCCCCNC(=O)c1ccc(N(C(=O)CCl)C(C(=O)NCc2ccccc2)c2ccc(Cl)c(Cl)c2)cc1)NO (stereo not shown) [Compound 2]	–	significant reduction of HDAC6 protein levels
